Laboratory results published in BindingDB's records for doi:10.7270/Q2TX3CTT (Broad Institute, 2010).
Counter-ions that a name gives are not always drawn.

Target: Glycogen synthase kinase-3 beta (Homo sapiens, UniProt P49841)
Test: concentration-response blocking of human GSK3B – biochemical, luminescence, cell-free homogeneous, retest, dose response (AID 434954)

Sequence of Glycogen synthase kinase-3 beta (P49841 whole entry): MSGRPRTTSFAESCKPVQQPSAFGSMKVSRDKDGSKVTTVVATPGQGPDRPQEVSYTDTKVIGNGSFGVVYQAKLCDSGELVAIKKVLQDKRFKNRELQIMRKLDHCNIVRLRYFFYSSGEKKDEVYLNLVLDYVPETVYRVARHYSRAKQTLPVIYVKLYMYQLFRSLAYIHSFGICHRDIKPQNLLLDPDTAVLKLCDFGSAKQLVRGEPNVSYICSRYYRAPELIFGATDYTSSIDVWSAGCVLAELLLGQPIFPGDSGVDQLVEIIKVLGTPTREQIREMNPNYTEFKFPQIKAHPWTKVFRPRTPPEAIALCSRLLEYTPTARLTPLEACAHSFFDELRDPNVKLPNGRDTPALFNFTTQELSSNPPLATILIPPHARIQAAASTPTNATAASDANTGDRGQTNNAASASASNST

EC50 [µM]	SMILES
> 300	COCCn1c(SCC(=O)Nc2nc(C)c(Cl)cc2Cl)nc2ccccc21 [N-[3,5-bis(chloranyl)-6-methyl-pyridin-2-yl]-2-[1-(2-methoxyethyl)benzimidazol-2-yl]sulfanyl-ethanamide]
> 300	COc1ccc(N2CCN(CCNC(=O)c3nnc(Cc4c(F)cccc4Cl)o3)CC2)cc1 [MLS000083714]
> 300	O=C(O)c1cccc(Nc2nc(-c3ccccc3)nc3ccccc23)c1 [SMR000538934]
> 300	CCc1ccc(C=NNC(=O)c2nnn(-c3nonc3N)c2CN2CCOCC2)cc1
34.7	c1ccc(-c2nc(NCCCn3ccnc3)c3oc4ccccc4c3n2)cc1 [N-[3-(1-imidazolyl)propyl]-2-phenyl-4-benzofuro[3,2-d]pyrimidinamine;hydrochloride]
12.9	CC1(C)CC(=O)C=C(Nc2cc(-c3ccccc3)n[nH]2)C1
> 300	Cc1ccc(N2CSC3=C(C#N)C(c4cccs4)CC(=O)N3C2)cc1 (stereo not given) [MLS000522486]
22.8	CSc1nc(SCC(=O)NCC2CCCO2)c2c3c(sc2n1)CN(C)CC3 (stereo not given) [2-[(7-methyl-2-methylsulfanyl-6,8-dihydro-5H-pyrido[2,3]thieno[2,4-b]pyrimidin-4-yl)sulfanyl]-N-(oxolan-2-ylmethyl)ethanamide]
> 300	COc1ccccc1-c1cc(=O)c2c(O)ccc([N+](=O)[O-])c2o1 [MLS000518626]
> 300	CCOC(=O)c1c(S(=O)(=O)NCC(=O)NCc2ccc(C)cc2)c(C)n(C)c1C [ethyl 1,2,5-trimethyl-4-[[2-[(4-methylphenyl)methylamino]-2-oxoethyl]sulfamoyl]pyrrole-3-carboxylate]
1.27	Nc1nc(NCCCN2CCOCC2)nc(Nc2ccccc2F)c1[N+](=O)[O-] [MLS000769816]
15.2	N#Cc1c(Cl)nc(-c2ccncc2)nc1-c1ccccc1 [SMR000549420]
> 300	O=c1[nH]c(N=NCc2ccccc2)nc2ccccc12 [MLS000571403]
> 300	COc1ccc(CCN(C)C(=O)c2ccc(S(=O)(=O)Nc3ccccc3C)cc2)cc1OC
10.7	Nc1nc(NCCOCCO)nc(Nc2cccc(F)c2)c1[N+](=O)[O-] [2-[2-[[4-azanyl-6-[(3-fluorophenyl)amino]-5-nitro-pyrimidin-2-yl]amino]ethoxy]ethanol]
19.4	Cc1csc(SCC(=O)Nc2ccc(Cl)cn2)n1 [N-(5-chloropyridin-2-yl)-2-[(4-methyl-1,3-thiazol-2-yl)sulfanyl]acetamide]
> 300	COc1ccc(Cl)cc1-c1nc(N)nc(N(C)C)n1 [MLS000698391]
> 300	CSc1nc2n(n1)C(c1cccs1)C1C(=O)CCCC1=N2 (stereo not given) [SMR000295648]
> 300	O=C(NCCCN1CCN(Cc2ccccc2)CC1)C1CCN(S(=O)(=O)N2CCCC2)CC1 [N-[3-[4-(phenylmethyl)-1-piperazinyl]propyl]-1-(1-pyrrolidinylsulfonyl)-4-piperidinecarboxamide]
> 300	COc1ccc(-n2sc3c(c2=S)-c2cc(OC)ccc2NC3(C)C)cc1
> 300	COc1ccc(-c2nn(-c3ccccc3)cc2C=NNC(=S)NC(C)C)cc1OC [1-[[3-(3,4-dimethoxyphenyl)-1-phenyl-4-pyrazolyl]methylideneamino]-3-propan-2-ylthiourea]
> 300	O=C(NN=Cc1cccnc1)c1cc(-c2ccccc2)nc2c(Cl)cccc12 [MLS001230128]
21.8	Cc1nc[nH]c1C(=O)NN=Cc1c(Cl)cccc1Cl [MLS001182271]
20.7	CCc1ccc(C(=O)c2cnc3ccc(OC)cc3c2N2CCN(CC)CC2)cc1 [(4-ethylphenyl)-[4-(4-ethylpiperazin-1-yl)-6-methoxy-quinolin-3-yl]methanone]
> 300	CCOC(=O)c1c(S(=O)(=O)NCC(=O)Nc2ccccc2)c(C)n(C)c1C [MLS001028712]

Continued, molecule first:

SMILES	EC50 [µM]
CC(C)N1CCc2c(sc(NC(=O)Cc3ccccc3)c2C(N)=O)C1	> 300
O=C1NCCCc2c1oc1cc(Br)c(O)c(Br)c21 [MLS000043345]	40.7
CN1CCN(CCNC(=O)Nc2ccccc2[N+](=O)[O-])CC1 [N-[2-(4-methylpiperazin-1-yl)ethyl]-N'-(2-nitrophenyl)urea]	> 300
Clc1cccc(Nc2nc(-c3ccncc3)nc3ccccc23)c1	56.8
COc1ccc(CCNc2nc(-c3cccnc3)nc3ccccc23)cc1OC [N-[2-(3,4-dimethoxyphenyl)ethyl]-2-pyridin-3-ylquinazolin-4-amine]	> 300
Cc1ccc2nc3c(cc2c1)c(NC(=O)c1ccccn1)nn3CC(C)C	> 300
COc1ccc(-c2nnc3ccc(SCC(N)=O)nn23)cc1OC [2-[[3-(3,4-dimethoxyphenyl)-[1,2,4]triazolo[4,3-b]pyridazin-6-yl]sulfanyl]ethanamide]	> 300
COc1ccc(CC(=O)N2C[C@H]3C[C@@H](C2)c2cccc(=O)n2C3)cc1 [SMR000646314]	> 300
COc1ccc(C(C)(C)C)cc1NS(=O)(=O)c1cccc2cccnc12	> 300
CCCc1cc(C(=O)Nc2cc(Br)ccc2O)no1 [MLS000116375]	> 300
C=CCn1c(SCC(=O)Nc2ccc(Cl)cn2)nnc1C1CC1	40
c1ccc(CSc2ccc3nnc(-c4ccccn4)n3n2)cc1	> 300
COc1ccc(Nc2oc(COc3ccccc3F)nc2C#N)cc1	> 300
COC(=O)C1=C(C)N(CCc2cc(OC)c(OC)c(OC)c2)C(=O)N[C@H]1c1ccccc1 [methyl (6S)-4-methyl-2-oxo-6-phenyl-3-[2-(3,4,5-trimethoxyphenyl)ethyl]-1,6-dihydropyrimidine-5-carboxylate]	> 300
Cc1cccc(CSc2ccc3nnc(-c4cccs4)n3n2)c1 [SMR000236998]	> 300
COc1cccc(-c2nc(SCC(=O)Nc3nc(-c4ccccc4)c(C)s3)[nH]c(=O)c2C#N)c1	> 300
O=C(Nc1ccc2c(c1)OCO2)Nc1ccccn1 [N-1,3-benzodioxol-5-yl-N'-2-pyridinylurea]	> 300
CCOc1ccc(CN=Nc2ccccn2)cc1OC [MLS001005584]	> 300
Fc1ccccc1Nc1nc(-c2ccncc2)nc2ccccc12 [N-(2-fluorophenyl)-2-pyridin-4-yl-quinazolin-4-amine]	> 300
COc1cccc(C(=O)NCCCNC(=O)c2cccc(OC)c2)c1 [3-methoxy-N-[3-[[(3-methoxyphenyl)-oxomethyl]amino]propyl]benzamide]	> 300
COCCn1c(SCC(=O)NCc2ccc(F)cc2)nc2ccccc21 [N-[(4-fluorophenyl)methyl]-2-[1-(2-methoxyethyl)benzimidazol-2-yl]sulfanylacetamide]	> 300
CC[n+]1c(/C=C/N(C)c2ccccc2)oc2ccc(F)cc21	> 300
CC(C)CC(=O)Nc1ncc([N+](=O)[O-])s1 [MLS001043214]	4.86

SMILES	EC50 [µM]
CCCc1cc(=O)[nH]c(SCCOc2ccc(OCC)cc2)n1	> 300
CN=C(NC#N)SCC(=O)c1ccc(Cl)cc1Cl [[2-(2,4-dichlorophenyl)-2-oxidanylidene-ethyl] N-cyano-N'-methyl-carbamimidothioate]	3.19
CCOc1cc(C=NN=C(N)N)ccc1OCc1ccc(Cl)cc1 [N''-{4-[(4-chlorobenzyl)oxy]-3-ethoxybenzylidene}carbonohydrazonic diamide]	> 300
O=[N+]([O-])c1cc(-c2nc(-c3ccncc3)no2)ccc1Cl [MLS000331762]	> 300
Cc1ccc(NS(=O)(=O)c2cccc(C(=O)NN=Cc3c(C)nn(-c4ccccc4)c3N3CCCC3)c2)c(C)c1 [MLS000394744]	> 300
CCN(CC)Cc1c(O)ccc2c1O/C(=C\C=C\c1ccccc1)C2=O [MLS000779120]	> 300
CC1=C(C(=O)Nc2ccccc2F)C(c2cccs2)C2C(=O)CCCC2=N1 (stereo not given)	> 300
Cc1nnc(SCC(=O)N2CCC(C(=O)Nc3nccs3)CC2)n1Cc1ccccc1	36.6
CN(C)Cc1c(O)ccc2c3c(c(=O)oc12)CCCCC3 [4-Dimethylaminomethyl-3-hydroxy-8,9,10,11-tetrahydro-7H-cyclohepta[c]chromen-6-one]	78.8
CCN(CC)S(=O)(=O)c1ccc(O)c(C(=O)OCC(=O)Nc2cc(C)c(C)cc2[N+](=O)[O-])c1	> 300
COCCNc1nc(N)c([N+](=O)[O-])c(Nc2ccc(F)cc2)n1	> 300
COc1ccc(CN(CC(=O)NCc2ccccc2)C(=O)CCC(=O)Nc2cc(C)ccn2)cc1 [N-(Benzylcarbamoyl-methyl)-N-(4-methoxy-benzyl)-N'-(4-methyl-pyridin-2-yl)-succinamide]	21.3
Nc1nnc(CC(=O)NN=Cc2ccccc2OCc2ccc(F)cc2)s1 [SMR000420435]	> 300
Cc1ccc(SCc2c(C(=O)NN=Cc3ccoc3)nnn2-c2nonc2N)cc1 [SMR000647588]	> 300
Nc1nonc1-n1nnc(C(=O)NN=Cc2ccoc2)c1CSc1ccccc1 [1-(4-azanyl-1,2,5-oxadiazol-3-yl)-N-(furan-3-ylmethylideneamino)-5-(phenylsulfanylmethyl)-1,2,3-triazole-4-carboxamide]	> 300
COC(=O)c1nnn(-c2nonc2N)c1CSc1nc2ccccc2o1 [methyl 1-(4-amino-1,2,5-oxadiazol-3-yl)-5-[(1,3-benzoxazol-2-ylthio)methyl]-1H-1,2,3-triazole-4-carboxylate]	127
O=C(NCCN1C(=O)S/C(=C\c2ccc(Cl)c(Cl)c2)C1=O)C1COc2ccccc2O1 (stereo not given) [SMR000254587]	> 300
O=C(Cc1ccc([N+](=O)[O-])cc1)Nc1ccc2c(c1)C(=O)NC2=O [SMR000291894]	> 300
C[C@H]1CCCC(=O)CCCC=Cc2cc(O)cc(O)c2C(=O)O1 [(11S)-11-methyl-15,17-bis(oxidanyl)-12-oxabicyclo[12.4.0]octadeca-1(18),2,14,16-tetraene-7,13-dione]	5.45
CC(C=Cc1ccccc1F)=NNC(=O)C(C)C [N-[[(E)-4-(2-fluorophenyl)but-3-en-2-ylidene]amino]-2-methylpropanamide]	> 300
COC(=O)C(C)Oc1cc(OC(C)C(=O)OC)c2c(-c3ccccc3)cc(=O)oc2c1 (stereo not given) [methyl 2-[5-(1-methoxy-1-oxopropan-2-yl)oxy-2-oxo-4-phenylchromen-7-yl]oxypropanoate]	> 300
CN(C)/C=C/C(=O)c1cnc(-c2cccc(Cl)c2)s1 [MLS000706958]	> 300
